According to publication PMC4956724, “Assessing the reliability of uptake and elimination kinetics modelling approaches for estimating bioconcentration factors in the freshwater invertebrate, Gammarus pulex” (The Science of the Total Environment, 2016):
Read-outs that look alike come from different tables or passages of the source.

What was measured:
G. pulex exoskeleton = settings: both, Gammarus pulex, in vivo, pH 8.2
Gammarus pulex = assay: Toxicokinetic exposure (48 h uptake, 48 h depuration) of radio-labelled pharmaceuticals, first-order one-compartment model (OECD 305); settings: for BCF, Simultaneous BCF: kinetic BCF (k1/k2); for BCF, Sequential BCF a / BCF, Sequential BCF b: kinetic BCF; for BCF, Sequential BCF a / k1, Sequential BCF a / k2, Sequential BCF a: sequential using curve fitting method; for BCF, Sequential BCF b / k1, Sequential BCF b / k2, Sequential BCF b: sequential using linear regression
G. pulex [1] = settings: Gammarus pulex, in vivo
G. pulex [2] = settings: cited from earlier work
G. pulex [3] = test system: G. pulex; parameters: method as in Meredith-Williams et al., 2012; settings: ref Meredith-Williams et al., 2012; cited from earlier work
G. pulex [4] = assay: Re-examination of raw toxicokinetic data from Ashauer et al. (2010) using the OECD 305 modelling approach; settings: 2010 re-modelled
[5] = simultaneous method, 1 μg·L^− 1 (diclofenac, ibuprofen 10 μg·L^− 1), 15 °C, pH 8.2

Structure (SMILES) | BCF, Sequential BCF (G. pulex [1]) | BCF, Simultaneous BCF (G. pulex [1]) | k1, Sequential BCF (G. pulex [1]) | k1, Simultaneous BCF (G. pulex [1]) | k2, Sequential BCF (G. pulex [1]) | k2, Simultaneous BCF (G. pulex [1]) | BAF (G. pulex [2]; in vivo) | also measured
O=C(O)Cc1ccccc1Nc1c(Cl)cccc1Cl [Diclofenac, diclofenac] |  |  |  |  |  |  |  | Maximum concentration sorbed to exoskeleton (G. pulex exoskeleton): 18%; Mean Compound Mass per Animal (G. pulex exoskeleton): 2070 pg; Total Mass Compound on exoskeleton (G. pulex exoskeleton): 368 (n=4) pg; BCF, Simultaneous BCF (Gammarus pulex; simultaneous method): 14 L kg^− 1; BCF, Sequential BCF a (Gammarus pulex): 27 L kg^− 1; BCF, Sequential BCF b (Gammarus pulex): 21 L kg^− 1; k1, Sequential BCF a (Gammarus pulex): 0.253 L kg^− 1 day^− 1; k2, Sequential BCF a (Gammarus pulex): 0.009 day^− 1; k1, Sequential BCF b (Gammarus pulex): 0.269 L kg^− 1 day^− 1; k2, Sequential BCF b (Gammarus pulex): 0.013 day^− 1; k2 (elimination rate constant), Simultaneous BCF (Gammarus pulex; [5]): 0.020 day^− 1
CNC(=O)O/N=C/C(C)(C)SC [Aldicarb] | 3 L kg^− 1 | 2 L kg^− 1 | 3 L kg^− 1 day^− 1 | 16 L kg^− 1 day^− 1 | 0.936 day^− 1 | 10.419 day^− 1 | 2 | 
CC(C)NCC(O)COc1cccc2ccccc12 (stereo not drawn) [Propranolol, propranolol] |  |  |  |  |  |  |  | Mean Compound Mass per Animal (G. pulex exoskeleton): 336 pg; Total Mass Compound on exoskeleton (G. pulex exoskeleton): 44 (n=1) pg
O=[N+]([O-])NC1=NCCN1Cc1ccc(Cl)nc1 [Imidacloprid] | 13 L kg^− 1 | 7 L kg^− 1 | 2 L kg^− 1 day^− 1 | 2 L kg^− 1 day^− 1 | 0.175 day^− 1 | 0.265 day^− 1 | 7 | 
CCOC(=O)CC(SP(=S)(OC)OC)C(=O)OCC (stereo not drawn) [Malathion] | 212 L kg^− 1 | 120 L kg^− 1 | 80 L kg^− 1 day^− 1 | 86 L kg^− 1 day^− 1 | 0.378 day^− 1 | 0.721 day^− 1 | 114 | 
CCOP(=S)(OCC)Oc1cc(C)nc(C(C)C)n1 [Diazinon] | 101 L kg^− 1 | 77 L kg^− 1 | 161 L kg^− 1 day^− 1 | 276 L kg^− 1 day^− 1 | 1.590 day^− 1 | 3.569 day^− 1 | 82 | 
CNCCC(Oc1ccc(C(F)(F)F)cc1)c1ccccc1 (stereo not drawn) [fluoxetine] |  |  |  |  |  |  |  | BCF (G. pulex [3]): 185,900
COCCc1ccc(OCC(O)CNC(C)C)cc1 (stereo not drawn) [Metoprolol, metoprolol] |  |  |  |  |  |  |  | Mean Compound Mass per Animal (G. pulex exoskeleton): 74 pg; Total Mass Compound on exoskeleton (G. pulex exoskeleton): 14 (n=2) pg
C=CC(=O)OCC [Ethylacrylate] |  |  |  |  |  |  |  | BCF, Sequential BCF (G. pulex [4]; sequential method): 331 L kg^− 1; k1, Sequential BCF (G. pulex [4]; sequential method): 67 L kg^− 1 day^− 1; k2, Sequential BCF (G. pulex [4]; sequential method): 0.204 day^− 1; BCF, Simultaneous BCF (G. pulex [4]; simultaneous method): 69 L kg^− 1; k1, Simultaneous BCF (G. pulex [4]; simultaneous method): 110 L kg^− 1 day^− 1; k2, Simultaneous BCF (G. pulex [4]; simultaneous method): 1.594 day^− 1; BAF (G. pulex [2]; ref Ashauer et al. (2010)): 87
CC(C)(C)NCC(O)c1cc(O)cc(O)c1 (stereo not drawn) [Terbutaline, terbutaline] |  |  |  |  |  |  |  | BCF, Simultaneous BCF (Gammarus pulex; simultaneous method): 12 L kg^− 1; BCF, Sequential BCF a (Gammarus pulex): 22 L kg^− 1; BCF, Sequential BCF b (Gammarus pulex): 19 L kg^− 1; k1, Sequential BCF a (Gammarus pulex): 0.135 L kg^− 1 day^− 1; k2, Sequential BCF a (Gammarus pulex): 0.006 day^− 1; k1, Sequential BCF b (Gammarus pulex): 0.117 L kg^− 1 day^− 1; k2, Sequential BCF b (Gammarus pulex): 0.006 day^− 1; k1 (uptake rate constant), Simultaneous BCF (Gammarus pulex; [5]): 0.136 L kg^− 1 day^− 1; k2 (elimination rate constant), Simultaneous BCF (Gammarus pulex; [5]): 0.011 day^− 1
Clc1c(Cl)c(Cl)c(Cl)c(Cl)c1Cl [Hexachlorobenzene] | 4160 L kg^− 1 | 2505 L kg^− 1 | 631 L kg^− 1 day^− 1 | 553 L kg^− 1 day^− 1 | 0.152 day^− 1 | 0.221 day^− 1 |  | 
